Experimental data as given in patent US20260374766A1, “METHODS FOR TREATING CANCER” (Antares Therapeutics, Inc., priority 2022, published 2026).
Where a name gives a salt, the structure may show the parent alone. Read-outs that look alike come from different tables or passages of the source.

Legend:
[1] = target: T1, p53 Y220C mutant protein (amino acid residues 94-293) (Homo sapiens, UniProt P04637, Y220C); assay: Surface Plasmon Resonance (SPR) assay, Kd_kinetic; type: binding; conditions: SPR, p53 Y220C, read-out: SPR P53 Y220C KD kinetic
T1 construct: p53 Y220C mutant protein (amino acid residues 94-293)
Summary of the method: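 Kd values come from fitting sensorgrams to a 1:1 binding model. Sensorgrams were recorded on a Biacore 8K at 16 or 20 °C in pH 7.5 Tris buffer with 100 mM NaCl, 1 mM DTT, detergents and 1% DMSO.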

[2] = target: T1, p53 Y220C mutant protein (amino acid residues 94-293); assay: Thermal Shift Assay (TSA), dTM; type: binding; conditions: for ΔTm at 100 µM: 100 uM compound, read-out: TSA P53 Y220C dTM (100 uM); for ΔTm at 10 µM: 10 uM compound
Description: Thermal Shift Assay (TSA) Protocol
5 μM recombinant p53 Y220C mutant protein (amino acid residues 94-293) was incubated with 10 μM or 100 μM compound for 3 hours at 20 °C in buffer containing 20 mM HEPES, pH7.4, 100 mM NaCl, 0.01% Pluronic F-127, and 1% DMSO in the presence of 400-fold diluted Sypro Orange (ThermoFisher Scientific catalog number 4461146), on a 384-well PCR plate (Applied Biosystems catalog number 4483285). The volume was 5 μL/well. The sealed plate was then loaded onto a QuantStudio 7 Flex instrument for melting temperature (TM) measurement. The temperature was increased from 30 °C to […], at a rate of 0.03 °C/second. Data were fit into a Boltzmann two-state model to determine the TM.

p53 Y220C = p53 Y220C (Homo sapiens, UniProt P04637, Y220C); assay: Luciferase Reporter Assay (Luc), p53 response element, NClH1299 cells with inducible p53 Y220C; type: cell-based; conditions: luciferase reporter, NClH1299 inducible p53 Y220C, 6 hour; for AC50: read-out: Luc P53 Y220C AC50
Summary of the method: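 Cells were seeded at 5,000 per well and induced with 0.5 ug/mL doxycycline for 24 hours, then exposed to compound for 6 hours. One-Glo reagent was added, plates shaken 5 minutes at room temperature, and luminescence read immediately.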

NUGC3 p53 Y220C = assay: Cell Proliferation Assay (CellTiter-Glo, CTG), NUGC3 p53 Y220C; type: cell-based; conditions: Homo sapiens, NUGC-3, 120 h, CellTiter-Glo, 5 days
Summary of the method: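 NClH1299 lines stably transduced with Tet-inducible p53 Y220C or R273H, plus NUGC3, were treated with compound for 5 days at 250-500 cells/well. IC50 derived from CellTiter-Glo luminescent signal after 10 min room-temperature incubation.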

H1299 p53 Y220C = assay: Cell Proliferation Assay (CellTiter-Glo, CTG), H1299 p53 Y220C (NClH1299-inducible p53 Y220C); type: cell-based; conditions: Homo sapiens, NCI-H1299, 120 h, CellTiter-Glo, 5 days
Summary of the method: (§1)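 Tet-One inducible p53 Y220C or R273H constructs were stably introduced into NCI-H1299 by lentiviral transduction; NUGC3 was used as is. Cells (250-500 per well) were exposed to compound for 5 days, then CellTiter-Glo was added for 10 min at room temperature and IC50 was calculated from luminescence.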

H1299 p53 R273H = assay: Cell Proliferation Assay (CellTiter-Glo, CTG), H1299 p53 R273H (NClH1299-inducible p53 R273H); type: cell-based; conditions: Homo sapiens, NCI-H1299, 120 h, CellTiter-Glo, 5 days
Summary of the method: as §1

[3] = 10 uM tool compound as positive control
[4] = p53 Y220C, read-out: TSA P53 Y220C dTM
[5] = NClH1299-inducible p53 Y220C cells
[6] = NClH1299-inducible p53 R273H cells
[7] = thermal shift, read-out: TSA P53 Y220C dTM (10 uM)

Row | Compound | Kd ([1]; kinetic KD) [nM] | ΔTm at 100 µM ([2]; thermal shift) [°C] | Emax (p53 Y220C; [3]) [%] | AC50 (p53 Y220C) [nM] | IC50 (H1299 p53 Y220C; H1299 p53 Y220C) [nM] | IC50 (H1299 p53 R273H; H1299 p53 R273H) [nM] | Kd [1] [nM] | ΔTm at 10 µM [2, 4] [°C] | AC50 (p53 Y220C; AC50) [nM] | Emax (p53 Y220C; Emax) [%] | IC50 (H1299 p53 Y220C; [5]) [nM] | IC50 (H1299 p53 R273H; [6]) [nM] | ΔTm at 10 µM [2, 7] [°C] | IC50 (NUGC3 p53 Y220C; NUGC3 p53 Y220C) [nM] | IC50 (NUGC3 p53 Y220C; NUGC3 cells) [nM]
1 | CNC(=O)c1ccc(NCC#Cc2nc3c(N[C@H]4CCN(C)CC4(F)F)cccn3c2CC(F)(F)F)c(OC)c1 (single isomer, unassigned) [Example 38] | > 1000 | 5 to 10 | < 70 | > 3000 | > 3000 | ≥ 10000 | – | – | – | – | – | – | – | > 3000 | –
2 | CNC(=O)c1ccc(OC[C@H](C)O)c(NCC#Cc2cc3c(N[C@@H]4CCN(C)C[C@@H]4F)nccn3c2SC(F)(F)F)c1 (single isomer, unassigned) [Example 355] | – | – | – | – | – | – | < 10 | ≥ 10 | < 750 | > 90 | < 750 | ≥ 10000 | – | – | < 750
3 | CNC(=O)c1ccc(NCC#Cc2nc3c(N[C@@H]4CCc5ncnn5C4)cccn3c2SC(F)(F)F)c(OC)c1 (stereo in doubt) [Example 190] | < 10 | ≥ 10 | > 90 | < 750 | < 750 | ≥ 10000 | – | – | – | – | – | – | 5 to 10 | < 750 | –
4 | COc1cc(S(C)(=O)=O)ccc1NCC#Cc1nc2c(NC3CCN(C)CC3)cccn2c1CC(F)(F)F [Example 2, N-(2-{3-[(4-methanesulfonyl-2-methoxyphenyl)amino]prop-1-yn-1-yl}-3-(2,2,2-trifluoroethyl)imidazo[1,2-a]pyridin-8-yl)-1-methylpiperidin-4-amine] | 10 to 100 | ≥ 10 | < 70 | > 3000 | 1500 to 3000 | 5000 to 8000 | – | – | – | – | – | – | – | 1500 to 3000 | –
5 | COc1cc(S(C)(=O)=O)ccc1NCC#Cc1nc2c(NC3CCOCC3)cccn2c1CC(F)(F)F [Example 3, 2-{3-[(4-methanesulfonyl-2-methoxyphenyl)amino]prop-1-yn-1-yl}-N-(oxan-4-yl)-3-(2,2,2-trifluoroethyl)imidazo[1,2-a]pyridin-8-amine] | 10 to 100 | ≥ 10 | 70 to 80 | 1500 to 3000 | 1500 to 3000 | ≥ 10000 | – | – | – | – | – | – | – | > 3000 | –
6 | COc1cc(S(C)(=O)=O)ccc1NCC#Cc1nc2c(NC3CCS(=O)(=O)CC3)cccn2c1CC(F)(F)F [Example 4, 4-[(2-{3-[(4-methanesulfonyl-2-methoxyphenyl)amino]prop-1-yn-1-yl}-3-(2,2,2-trifluoroethyl)imidazo[1,2-a]pyridin-8-yl)amino]-1lambda6-thiane-1,1-dione] | 10 to 100 | 5 to 10 | < 70 | > 3000 | > 3000 | ≥ 10000 | – | – | – | – | – | – | – | 1500 to 3000 | –
7 | CNC(=O)c1ccc(NCC#Cc2nc3c(NC4CCN(C)CC4)cc(NC(=O)OC)cn3c2CC(F)(F)F)c(OC)c1 [Example 45, methyl N-[2-(3-{[2-methoxy-4-(methylcarbamoyl)phenyl]amino}prop-1-yn-1-yl)-8-[(1-methylpiperidin-4-yl)amino]-3-(2,2,2-trifluoroethyl)imidazo[1,2-a]pyridin-6-yl]carbamate] | – | 1 to 5 | < 70 | > 3000 | > 3000 | ≥ 10000 | – | – | – | – | – | – | – | > 3000 | –
8 | CNC(=O)c1ccc(NCC#Cc2nc3c(NC4CCN(C)CC4)cc(NC(=O)CCl)cn3c2CC(F)(F)F)c(OC)c1 [Example 91] | – | ≥ 10 | < 70 | > 3000 | > 3000 | ≥ 10000 | – | – | – | – | – | – | – | > 3000 | –
9 | CNC(=O)c1ccc(NCC#Cc2nc3c(N[C@@H]4CCN(C)C[C@@H]4F)cc(F)cn3c2CC(F)(F)F)c(OC)c1 [Example 99, 4-{[3-(6-fluoro-8-{[(3S,4R)-3-fluoro-1-methylpiperidin-4-yl]amino}-3-(2,2,2-trifluoroethyl)imidazo[1,2-a]pyridin-2-yl)prop-2-yn-1-yl]amino}-3-methoxy-N-methylbenzamide, formic acid salt] | – | ≥ 10 | 80 to 90 | 750 to 1500 | 750 to 1500 | 5000 to 8000 | – | – | – | – | – | – | – | 750 to 1500 | –

The next lines start with results.

Row | Kd ([1]; kinetic KD) [nM] | ΔTm at 100 µM ([2]; thermal shift) [°C] | Emax (p53 Y220C; [3]) [%] | AC50 (p53 Y220C) [nM] | IC50 (H1299 p53 Y220C; H1299 p53 Y220C) [nM] | IC50 (H1299 p53 R273H; H1299 p53 R273H) [nM] | Kd [1] [nM] | ΔTm at 10 µM [2, 4] [°C] | AC50 (p53 Y220C; AC50) [nM] | Emax (p53 Y220C; Emax) [%] | IC50 (H1299 p53 Y220C; [5]) [nM] | IC50 (H1299 p53 R273H; [6]) [nM] | ΔTm at 10 µM [2, 7] [°C] | Compound | IC50 (NUGC3 p53 Y220C; NUGC3 p53 Y220C) [nM] | IC50 (NUGC3 p53 Y220C; NUGC3 cells) [nM]
10 | > 1000 | 5 to 10 | < 70 | > 3000 | > 3000 | ≥ 10000 | – | – | – | – | – | – | – | CNC(=O)c1ccc(NCC#Cc2nc3c(N[C@@H]4CCN(C)CC4(F)F)cccn3c2CC(F)(F)F)c(OC)c1 (single isomer, unassigned) [Example 37] | > 3000 | –
11 | – | – | – | – | – | – | < 10 | ≥ 10 | < 750 | > 90 | < 750 | ≥ 10000 | – | CNC(=O)c1ccc(OC[C@@H](C)O)c(NCC#Cc2cc3c(N[C@@H]4CCN(C)C[C@@H]4F)nccn3c2SC(F)(F)F)c1 (single isomer, unassigned) [Example 356] | – | < 750
12 | 10 to 100 | 5 to 10 | 70 to 80 | > 3000 | > 3000 | ≥ 10000 | – | – | – | – | – | – | 5 to 10 | CNC(=O)c1ccc(NCC#Cc2nc3c(N[C@H]4CCc5ncnn5C4)cccn3c2SC(F)(F)F)c(OC)c1 (stereo in doubt) [Example 189] | > 3000 | –
13 | < 10 | ≥ 10 | 70 to 80 | 750 to 1500 | < 750 | 8000 to 10000 | – | – | – | – | – | – | – | COc1cc(S(C)(=O)=O)ccc1NCC#Cc1nc2c(N[C@@H]3CCN(C)C[C@@H]3F)cccn2c1CC(F)(F)F [Example 1, (3S,4R)-3-fluoro-N-(2-{3-[(4-methanesulfonyl-2-methoxyphenyl)amino]prop-1-yn-1-yl}-3-(2,2,2-trifluoroethyl)imidazo[1,2-a]pyridin-8-yl)-1-methylpiperidin-4-amine] | 750 to 1500 | –
14 | – | 1 to 5 | < 70 | > 3000 | > 3000 | ≥ 10000 | – | – | – | – | – | – | – | CN1CC[C@@H](Nc2cccn3c(CC(F)(F)F)c(C#CCN)nc23)[C@@H](F)C1 [Example 75, (3S,4R)—N-[2-(3-aminoprop-1-yn-1-yl)-3-(2,2,2-trifluoroethyl)imidazo[1,2-a]pyridin-8-yl]-3-fluoro-1-methylpiperidin-4-amine] | > 3000 | –
15 | – | 1 to 5 | < 70 | > 3000 | > 3000 | ≥ 10000 | – | – | – | – | – | – | – | C=C(F)C(=O)Nc1cc(NC2CCN(C)CC2)c2nc(C#CCNc3ccc(C(=O)NC)cc3OC)c(CC(F)(F)F)n2c1 [Example 90, 4-({3-[6-(2-fluoroprop-2-enamido)-8-[(1-methylpiperidin-4-yl)amino]-3-(2,2,2-trifluoroethyl)imidazo[1,2-a]pyridin-2-yl]prop-2-yn-1-yl}amino)-3-methoxy-N-methylbenzamide] | > 3000 | –
16 | – | – | 80 to 90 | < 750 | < 750 | ≥ 10000 | – | – | – | – | – | – | ≥ 10 | COc1cc(P(C)(C)=O)ccc1NCC#Cc1cc2c(N[C@@H]3CCN(C)C[C@@H]3F)nccn2c1SC(F)(F)F [Example 185, (3S,4R)—N-[7-(3-{[4-(dimethylphosphoryl)-2-methoxyphenyl]amino}prop-1-yn-1-yl)-6-[(trifluoromethyl)sulfanyl]pyrrolo[1,2-a]pyrazin-1-yl]-3-fluoro-1-methylpiperidin-4-amine; formic acid] | < 750 | –
